Measurements: paper PMC6272674, “Selected Compounds Structurally Related to Acyclic Sesquiterpenoids and Their Antibacterial and Cytotoxic Activity” (Molecules, 2015)
In brackets after ≈: the same amount, converted by molar mass.

What was measured:
[1] = system: Enterococcus faecium ATCC 35667; assay: Micro-dilution broth MIC, Enterococcus faecium; format: cell-based; settings: ATCC35667, 24 h, 37 °C, read-out: Minimum Inhibitory Concentrations MIC
Experimental: (§1) The standard strains, Gram-positive: Staphylococcus aureus ATCC […], Enterococcus faecalis Van B ATCC 51299 and Enterococcus faecium VA sensitive ATCC 35667, and Gram-negative: Escherichia coli ATCC 25922, Klebsiella pneumoniae ATCC 700603 and Acinetobacter baumannii ATCC 19606, came from a collection of the Environmental Biology Department, Medical University of Łódź. The standard strains were cultivated in Columbia Agar Medium and incubated at 37 °C for 24 h in aerobic conditions.
(§2) The antibacterial activity of the racemates and E/Z-mixtures was investigated using the micro‑dilution broth method. The compounds were diluted in ethanol. This stock solution was mixed with 100 µL of Mueller-Hinton broth to obtain concentrations from 10 µg/mL to 80 µg/mL. The mixtures were then transferred to 96-well microtiter plates. The microbial suspension was standardised to a cell density of 1.5 × 10^8 CFU, which was equal to an optical density of 0.5 on the Mc Farland scale by a bio-Merieux densitometer; one well was filled with broth only to act as a control for strain growth.

Fibroblasts HFIG = assay: MTT viability, HFIG; format: cell-based, human; settings: Homo sapiens, Fibroblast, 24 h, range 10–1000 µM, read-out: half maximal inhibitory concentration (IC50), interpolated
Experimental: (§3) Cell lines and in vitro culture conditions: The human promyelocytic leukaemia cell line HL-60 was obtained from the Centre of Molecular and Macromolecular Biology in Łódź, Poland and was cultured in RPMI 1640 medium with 20% heat-inactivated fetal bovine serum (FBS). To reduce spontaneous differentiation, the cells were never allowed to exceed a concentration of 1.0 × 10^6 cells/mL. The human keratinocyte cell line HaCaT was obtained from Cell Lines Service, Germany (CLS) and cultured in DMEM medium with 10% FBS. Human colorectal adenocarcinoma HT29 and normal epithelial IEC-6 cell lines (from ATCC) were cultured in DMEM medium with 10% FBS. The human skin melanoma cell line MEWO (from CLS) was cultured in DMEM:F12 supplemented with 2 mM L-glutamine and 10% FBS. Human fibroblasts from gingiva isolated from original tissue, HFIB-G, (from Provitro) were cultured in Quantum 333 (from Immunique). The media were supplemented with 100 U/mL penicillin and 100 µg/mL streptomycin; all media components were obtained from Life Technologies. The adherent cell lines used in the studies were seeded on microplates before they exceeded 80% of confluence. Cells were cultured at 37 °C in 5% CO2 air atmosphere/95% air atmosphere.
(§4) Cytotoxic activity: The cells (the density for HL-60 was 0.5 × 10^4 cells/100 µL, otherwise it was 1 × 10^4 cells/100 µL) were plated into each well of 96-well microtiter plates and, after their attachment to the plate surface, treated with 10 µL of the indicated concentrations of compounds for 24 h. Viability was determined by MTT assay following the treatment. MTT (3-[4.5-dimethylthiazol-2-yl]-2.5-diphenyltetrazolium bromide; Sigma, St. Louis, MO, USA) solution was added to each well and incubated for another 4 h. The resulting MTT-formazan product was dissolved by the addition of lysis buffer (20% SDS and 50% DMF). The amount of formazan was determined by measuring absorbance at 570 nm with a Synergy 2 microplate reader (BioTek, Winooski, VT, USA) operated by the Gen5 program. The experiments were conducted three times with five replications. The results are expressed as an optical density ratio of the treatment to control. All data are presented as means ± SD.

MTT viability, HT29 = format: cell-based, human; settings: human, HT29 colorectal adenocarcinoma cells, 1000 µM (IC50 exceeded 1000 µM), read-out: viability ± standard deviation at 1000 µM
Experimental: as §3, §4

[2] = system: Promyelocytic Leukaemia HL-60; assay: MTT viability, HL-60; format: cell-based, human; settings: Homo sapiens, HL-60, 24 h, HL-60, MTT, range 10–1000 µM, read-out: half maximal inhibitory concentration (IC50), interpolated
Experimental: as §3, §4

Keratinocytes HaCaT = assay: MTT viability, HaCaT; format: cell-based, human; settings: Homo sapiens, 24 h, range 10–1000 µM, read-out: half maximal inhibitory concentration (IC50), interpolated
Experimental: as §3, §4

[3] = system: Klebsiella pneumoniae ATCC 700603; assay: Micro-dilution broth MIC, Klebsiella pneumoniae; format: cell-based; settings: ATCC700603, 24 h, 37 °C, read-out: Minimum Inhibitory Concentrations MIC
Experimental: as §1, §2

[4] = system: Enterococcus faecalis ATCC 51299; assay: Micro-dilution broth MIC, Enterococcus faecalis; format: cell-based; settings: ATCC51299, 24 h, 37 °C, read-out: Minimum Inhibitory Concentrations MIC
Experimental: as §1, §2

MTT viability, IEC6 = format: cell-based; settings: rat, IEC-6 small intestine epithelial cells, 1000 µM (IC50 exceeded 1000 µM), read-out: viability ± standard deviation at 1000 µM
Experimental: as §3, §4

[5] = system: Acinetobacter baumannii ATCC 19606; assay: Micro-dilution broth MIC, Acinetobacter baumannii; format: cell-based; settings: ATCC19606, 24 h, 37 °C, read-out: Minimum Inhibitory Concentrations MIC
Experimental: as §1, §2

[6] = system: Escherichia coli ATCC 25922; assay: Micro-dilution broth MIC, Escherichia coli; format: cell-based; settings: ATCC25922, 24 h, 37 °C, read-out: Minimum Inhibitory Concentrations MIC
Experimental: as §1, §2

Malignant Melanoma MEWO = assay: MTT viability, MEWO; format: cell-based, human; settings: Homo sapiens, 24 h, range 10–1000 µM, read-out: half maximal inhibitory concentration (IC50), interpolated
Experimental: as §3, §4

[7] = system: Staphylococcus aureus ATCC 43300; assay: Micro-dilution broth MIC, Staphylococcus aureus; format: cell-based; settings: ATCC43300, 24 h, 37 °C, read-out: Minimum Inhibitory Concentrations MIC
Experimental: as §1, §2

Row | MIC [1] [µg/mL] | IC50 [2] [µM] | MIC [3] [µg/mL] | MIC [4] [µg/mL] | MIC [5] [µg/mL] | MIC [6] [µg/mL] | IC50 (Malignant Melanoma MEWO) [µM] | MIC [7] [µg/mL] | Structure (SMILES) | IC50 (Fibroblasts HFIG) [µM] | viability at 24 h, 1000 µM (MTT viability, HT29) [%] | IC50 (Keratinocytes HaCaT) [µM] | viability at 24 h, 1000 µM (MTT viability, IEC6) [%]
1 | 36 (≈ 143 µM) | 145 | 42 (≈ 166 µM) | 30 (≈ 119 µM) | 38 (≈ 151 µM) | 48 (≈ 190 µM) | 495 | 32 (≈ 127 µM) | CC(=CCO)CCC=C(C)C(C)CCCC(C)C (stereo not drawn) [Compound 26, 3,7,8,12-Tetramethyltrideca-2,6-dien-1-ol] | 531 | 96 | 620 | 76
2 | 36 (≈ 163 µM) | 363 | 44 (≈ 200 µM) | 22 (≈ 99.8 µM) | 36 (≈ 163 µM) | 46 (≈ 209 µM) | 467 | 24 (≈ 109 µM) | CC(C)=CCCC(C)=CCCC(C)=CC=O [Farnesal (3), farnesal, reference compound] | 650 | 110 | 702 | 85
3 | 34 (≈ 144 µM) | 167 | 48 (≈ 203 µM) | 32 (≈ 135 µM) | 44 (≈ 186 µM) | 50 (≈ 212 µM) | 500 | 28 (≈ 118 µM) | CC(C)=CCCC(C)/C=C/CCC(C)=CCO (stereo not drawn) [Compound 25, (6E)-3,8,12-Trimethyltrideca-2,6,11-trien-1-ol] | 454 | 108 | 667 | 82
4 | 32 (≈ 128 µM) | 100 | 44 (≈ 176 µM) | 18 (≈ 71.9 µM) | 40 (≈ 160 µM) | 52 (≈ 208 µM) | 512 | 22 (≈ 87.9 µM) | CC(C)=CCCC(C)C(C)=CCCC(C)=CCO (stereo not drawn) [Compound 24, 3,7,8,12-Tetramethyltrideca-2,6,11-trien-1-ol] | 390 | 78 | 686 | 85
5 | 32 (≈ 128 µM) | 480 | 38 (≈ 152 µM) | 20 (≈ 79.9 µM) | 38 (≈ 152 µM) | 48 (≈ 192 µM) | 690 | 22 (≈ 87.9 µM) | CC(=CC=O)CCC=C(C)C(C)CCCC(C)C (stereo not drawn) [Compound 20, 3,7,8,12-Tetramethyltrideca-2,6-dienal] | 610 | 82 | 850 | 64
6 | 18 (≈ 91.7 µM) | 143 | 18 (≈ 91.7 µM) | 26 (≈ 132 µM) | 34 (≈ 173 µM) | 36 (≈ 183 µM) | 456 | 28 (≈ 143 µM) | CC(C)=CCCC(C)CC(C)=CCO (stereo not drawn) [Compound 27, 3,5,9-Trimethyldeca-2,8-dien-1-ol] | 489 | 106 | 687 | 93
7 | 36 (≈ 162 µM) | 630 | 34 (≈ 153 µM) | 26 (≈ 117 µM) | 36 (≈ 162 µM) | 46 (≈ 207 µM) | 730 | 28 (≈ 126 µM) | CC(C)=CCCC(C)CC(C)C(C)=CC=O (stereo not drawn) [Compound 23, 3,4,6,10-Tetramethylundeca-2,9-dienal] | 800 | 87 | 900 | 82
8 | 20 | 278 | 18 | 22 | 22 | 28 | 800 | 28 | CC(=O)OCC=C(C)CCC=C(C)C(C)CCCC(C)C (stereo not drawn) [Compound 32, 3,7,8,12-Tetramethyltrideca-2,6-dien-1-yl acetate] | 980 | 103 | 950 | 92
9 | 16 (≈ 76.1 µM) | 198 | 16 (≈ 76.1 µM) | 18 (≈ 85.6 µM) | 18 (≈ 85.6 µM) | 28 (≈ 133 µM) | 512 | 26 (≈ 124 µM) | CC(C)=CCCC(C)CCC(C)=CCO (stereo not drawn) [Compound 28, 3,6,10-Trimethylundeca-2,9-dien-1-ol] | 687 | 93 | 698 | 101
